Results published in ChEMBL document CHEMBL1201862, “PubChem BioAssay data set” (2004).
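Each compound was tested at five concentrations against cells in 96-well plates for 48 hours. GI50 marks 50% less growth.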 Activity calls are given as the source filed them. No stated cut-off is given here; in the data, active = GI50 up to about 1.1 µM and inactive = higher.

Assays:
Test in all cases: NCI anticancer screen, dose series, 48 h
PC-3 = tested on: PC-3
NCI/ADR-RES = tested on: NCI/ADR-RES
COLO 205 = tested on: COLO 205
OVCAR-4 = tested on: OVCAR-4
SK-OV-3 = tested on: SK-OV-3
T47D = tested on: T47D
HOP-92 = tested on: HOP-92
SW-620 = tested on: SW-620
Malme-3M = tested on: Malme-3M
MOLT-4 = tested on: MOLT-4
RPMI-8226 = tested on: RPMI-8226
OVCAR-5 = tested on: OVCAR-5
KM12 = tested on: KM12
OVCAR-8 = tested on: OVCAR-8
CCRF-CEM = tested on: CCRF-CEM
NCI-H226 = tested on: NCI-H226
CAKI-1 = tested on: CAKI-1
U-251 = tested on: U-251
IGROV-1 = tested on: IGROV-1
SNB-75 = tested on: SNB-75

Row | SMILES | GI50 (PC-3) | GI50 (NCI/ADR-RES) | GI50 (COLO 205) | GI50 (OVCAR-4) | GI50 (SK-OV-3) | GI50 (T47D) | GI50 (HOP-92) | GI50 (SW-620) | GI50 (Malme-3M) | GI50 (MOLT-4) | GI50 (RPMI-8226) | GI50 (OVCAR-5) | GI50 (KM12) | GI50 (OVCAR-8) | GI50 (CCRF-CEM) | GI50 (NCI-H226) | GI50 (CAKI-1) | GI50 (U-251) | GI50 (IGROV-1) | GI50 (SNB-75)
1 | c1cc(NC2=NCCO2)c2c(c1)OCO2 | > 100 µM (inactive) | > 100 µM (inactive) | > 100 µM (inactive) | > 100 µM (inactive) | > 100 µM (inactive) | > 100 µM (inactive) | > 100 µM (inactive) | > 100 µM (inactive) | > 100 µM (inactive) | > 100 µM (inactive) | > 100 µM (inactive) | > 100 µM (inactive) | 80.2 µM (inactive) | > 100 µM (inactive) | > 100 µM (inactive) | > 100 µM (inactive) | > 100 µM (inactive) | > 100 µM (inactive) | > 100 µM (inactive) | –
2 | CCn1c(=O)c2nc(SC)sc2n(-c2ccc(C)cc2)c1=O | > 100 µM (inactive) | > 100 µM (inactive) | > 100 µM (inactive) | > 100 µM (inactive) | > 100 µM (inactive) | > 100 µM (inactive) | > 100 µM (inactive) | > 100 µM (inactive) | > 100 µM (inactive) | > 100 µM (inactive) | > 100 µM (inactive) | > 100 µM (inactive) | 88.9 µM (inactive) | > 100 µM (inactive) | > 100 µM (inactive) | > 100 µM (inactive) | – | > 100 µM (inactive) | > 100 µM (inactive) | 29.4 µM (inactive)
3 | CN(C)CCCNCc1cccc2ccccc12 | > 100 µM (inactive) | > 100 µM (inactive) | > 100 µM (inactive) | > 100 µM (inactive) | > 100 µM (inactive) | > 100 µM (inactive) | 78.3 µM (inactive) | > 100 µM (inactive) | > 100 µM (inactive) | > 100 µM (inactive) | > 100 µM (inactive) | > 100 µM (inactive) | > 100 µM (inactive) | > 100 µM (inactive) | > 100 µM (inactive) | > 100 µM (inactive) | – | > 100 µM (inactive) | > 100 µM (inactive) | > 100 µM (inactive)
4 | CCCCCCCCCC[C@H](O)[C@H](O)CC[C@@H](O)[C@H]1CC[C@@H]([C@H]2CC[C@H](CCCCCCC[C@@H](O)CC3=C[C@H](C)OC3=O)O2)O1 | 2.23 µM (inactive) | 1.25 µM (inactive) | 1.71 µM (inactive) | 24.4 µM (inactive) | – | 3.16 µM (inactive) | 6.32 µM (inactive) | 2.56 µM (inactive) | 15.3 µM (inactive) | 2.26 µM (inactive) | 0.82 µM (active) | 6.28 µM (inactive) | 2.22 µM (inactive) | 2.95 µM (inactive) | 2.52 µM (inactive) | 1.47 µM (inactive) | 2.25 µM (inactive) | 41.5 µM (inactive) | 2.72 µM (inactive) | 2.41 µM (inactive)
5 | CC(NC(=O)CNP(=O)(c1ccccc1)c1ccccc1)C(=O)NC(Cc1ccccc1)C(=O)OCc1ccccc1 (stereo not given) | 60.7 µM (inactive) | > 100 µM (inactive) | > 10 µM (inactive) | – | 21 µM (inactive) | > 100 µM (inactive) | > 100 µM (inactive) | 45.7 µM (inactive) | 60.8 µM (inactive) | 20.5 µM (inactive) | 33 µM (inactive) | > 100 µM (inactive) | 25.6 µM (inactive) | > 100 µM (inactive) | > 10 µM (inactive) | > 100 µM (inactive) | > 100 µM (inactive) | 23.4 µM (inactive) | 66.5 µM (inactive) | 19.6 µM (inactive)
6 | Cc1cc(C)cc(C(=N)c2ccccc2Cc2cccc3ccccc23)c1 | 45.8 µM (inactive) | 20.2 µM (inactive) | 21.3 µM (inactive) | 15.8 µM (inactive) | 17.5 µM (inactive) | 16.3 µM (inactive) | 13.3 µM (inactive) | 15.2 µM (inactive) | 12.8 µM (inactive) | 9.64 µM (inactive) | 20.3 µM (inactive) | 16.6 µM (inactive) | 11.4 µM (inactive) | 18 µM (inactive) | 9.73 µM (inactive) | 14.6 µM (inactive) | 19.5 µM (inactive) | 40.6 µM (inactive) | 17.4 µM (inactive) | –
7 | O=C([O-])C1([n+]2c(-c3ccccc3)cc(-c3ccccc3)cc2-c2ccccc2)CC1 | 80.4 µM (inactive) | > 100 µM (inactive) | – | 96.8 µM (inactive) | – | 16 µM (inactive) | 19.8 µM (inactive) | > 100 µM (inactive) | 34.5 µM (inactive) | 65.6 µM (inactive) | 32.2 µM (inactive) | > 100 µM (inactive) | – | > 100 µM (inactive) | 48.2 µM (inactive) | > 100 µM (inactive) | – | 28.7 µM (inactive) | 32.8 µM (inactive) | 46.8 µM (inactive)
